XC50 data for 60 molecules are collected here from ChEMBL document CHEMBL1157539, “Thousands of chemical starting points for antimalarial lead identification” (Nature, 2010).

The test deals with Plasmodium falciparum. As to the kind of experiment: GSK_TCMDC: Inhibition of Plasmodium falciparum 3D7 in whole erythrocytes, using parasite LDH activity as an index of growth. The test is classed as functional, organism-based. To be noted: Plasmodium falciparum, 3D7.
In turn, `CC(C)(C)NCCN(Cc1ccc(-c2ccc(C(F)(F)F)cc2)cc1)C(=O)Cn1c(CCc2cccc(F)c2F)nc(=O)c2c1CCC2` had an XC50 of 948 nM.

In turn, `CCN(CC)CCN(Cc1ccc(-c2ccc(C(F)(F)F)cc2)cc1)C(=O)Cn1c(CCc2cccc(F)c2F)nc(=O)c2cc(C)ccc21` showed an XC50 of 936 nM.

As for `Cc1ccc2c(=O)cc(CCc3cccc(F)c3F)n(CC(=O)N(Cc3ccc(-c4ccc(C(F)(F)F)cc4)cc3)C3CCN(C)CC3)c2n1`, the XC50 was 1260 nM.

`COc1ccc2nccc(N(C)CC3(O)CCC(NCc4cc5c(cn4)OCCO5)CC3)c2n1` (stereo not given) gave an XC50 of 675 nM.

`CC[C@H](N/C(=N\c1cccc(Cl)c1Cl)Nc1ccc(C#N)cc1O)c1ccccc1`: the XC50 was determined as 815 nM.

Molecule `COc1ccc2nccc([C@@H](O)CN3CCC(NC(=O)C(=Cc4ccc(Cl)cc4Cl)c4ccc(-c5ccccc5)cc4)CC3)c2c1` returned an XC50 of 993 nM.

As for `CCn1c(-c2nonc2N)nc2c(-c3ccccc3)ncc(OCCCNCCCN3CCOCC3)c21`, the XC50 worked out at 669 nM.

As to `CCOc1c(OC)ccc2c1CCN(CCN1CCC(CNC(=O)c3ccc(-c4ccc(C(F)(F)F)cc4)cc3)CC1)C2`, the XC50 was found to be 849 nM.

Molecule `c1ccc2c(NCCCCCCCCNc3ccnc4ccccc34)ccnc2c1` showed an XC50 of 155 nM.

On to `CS(=O)(=O)c1ccc(CNCc2ccc(-c3ccc(-c4nc5cc(C(F)(F)F)ccc5[nH]4)s3)cc2)cc1`, for which the XC50 was found to be 156 nM.

The molecule `COc1ccc(CCc2ccc(-c3c(C)[nH]c(C)c(Cl)c3=O)cc2)cc1` returned an XC50 of 15.2 nM.

`COc1ccc2nccc([C@@H](O)CN3CCC(NCC4COc5ccccc5O4)CC3)c2c1` (stereo not given in full): the XC50 is 247 nM.

As for `Cc1nc(C)c(-c2ccc(Oc3ccc([S+](C)[O-])cc3)cc2)c(O)c1Br` (stereo not given), the XC50 stood at 765 nM.

The molecule `O=C(Nc1cccc(-c2ccc(-c3nc4cc(C(F)(F)F)ccc4[nH]3)cc2)c1)Nc1ccc(F)c(F)c1F` returned an XC50 of 259 nM.

In turn, `Cc1cc(C)c(NC(=O)N2CCCN(CCCCCNC(=O)/C=C/c3ccc(Cl)c(Cl)c3)CC2)c(C)c1` showed an XC50 of 968 nM.

`COc1cc2nc(N3CCC(CNC(=O)c4ccc(-c5ccc(-c6noc(C)n6)cc5C)cc4)CC3)nc(N)c2cc1OC` displayed an XC50 of 215 nM.

Consider `N#Cc1ccc(CN2CCC(Oc3ccc(NC(=O)c4cccs4)cc3Cl)C2)cc1` (stereo not given), for which the XC50 is 402 nM.

`COc1ccc(CN2CCN(CCCCNC(=O)c3ccc(NC(=O)c4ccc(Cl)cc4)cc3)CC2)c(OC)c1` gave an XC50 of 890 nM.

`CCCOc1ccc(CCNCCCCNCCc2ccc(OCCC)c3ccccc23)c2ccccc12`: the XC50 was found to be 917 nM.

Consider `Cc1cc(Nc2nc(Nc3cccc(Cl)c3)nc3ccccc23)n[nH]1`, for which the XC50 is 287 nM.

With `CCCCCCCN(Cc1ccc(OC(C)(C)C(=O)OCC)cc1)C(=O)Cc1ccc(F)cc1F`, the XC50 was found to be 1030 nM.

For the molecule `Cc1c(CNCCN2CCCCC2)c(C(=O)O)c(C)n1Cc1ccc(Cl)cc1`, the XC50 was found to be 416 nM.

Molecule `Cc1cc(N2CCCC2)nc(Nc2ccc(NC(=O)c3cccc(F)c3)cc2)n1` showed an XC50 of 182 nM.

In the case of `COc1ccccc1CNC(=O)c1ccc(N2CCN(c3ccncc3)CC2)cn1`, the XC50 was 1360 nM.

The molecule `O=C(Nc1ccc(CCN2CCC(c3nc(COCC(F)(F)F)c(-c4ccccc4)o3)CC2)cc1)c1ccc(F)cc1` registered an XC50 of 1970 nM.

Turning to `Cc1cccc2nc(-c3ccc(-c4cccc(NC(=O)Nc5ccccc5)c4)cc3)[nH]c12`, the XC50 was 715 nM.

As for `COc1ccc2nccc([C@@H](O)CN3CCC(NCc4nc5c(OCc6ccccc6)cccc5[nH]4)CC3)c2c1`, the XC50 worked out at 178 nM.

In turn, `O=C(N[C@H]1CCN(Cc2ccc(OC3CCN(Cc4ccccc4)CC3)cc2)C1)c1ccc(Cl)c(Cl)c1` came in with an XC50 of 728 nM.

Regarding `CCCCCCCN1CC[C@@H](CCC(O)c2ccnc3ccc(OC)cc23)[C@@H](CC)C1` (stereo not given in full), the XC50 was determined as 754 nM.

`Cc1ccc(N2C(N)=NC(N)=NC2(C)C)cc1Cl` displayed an XC50 of 6.82 nM.

As to `Oc1ccc(CCCNc2nc(NCc3ccccc3-c3ccccc3)nc(N3CCNCC3)n2)cc1`, the XC50 is 713 nM.

In turn, `Cc1[nH]n(-c2cccc(C(F)(F)F)c2)c(=O)c1-c1ccc(Cl)cc1` came in with an XC50 of 856 nM.

`Cc1[nH]c(C)c(Cc2ccc(Oc3ccc(OC(F)(F)F)cc3)cc2)c(=O)c1Br` gave an XC50 of 686 nM.

Take `Oc1cccc(-c2cnc3ccc(NCc4ccc(F)cc4)nn23)c1`: the XC50 came out at 1080 nM.

On to `O=C(NCCN1CCC(NC(=O)c2ccc(-c3ccccn3)s2)CC1)c1cccc(C(F)(F)F)c1`, for which the XC50 amounted to 861 nM.

The molecule `Oc1ccc(CCNCCCCCCNCCc2ccc(Cl)c(Cl)c2)cc1O` came in with an XC50 of 726 nM.

As to `Cc1cccc2nc(-c3ccc(-c4cccc(NC(=O)NCc5ccc(F)cc5)c4)cc3)[nH]c12`, the XC50 was 146 nM.

The molecule `CN1CCN(CC(=O)Nc2ccc(-c3ccc(-c4nc5cc(C(F)(F)F)ccc5[nH]4)cc3)cc2)CC1` returned an XC50 of 420 nM.

On to `CCc1c[nH]c2c(N3CCCS3(=O)=O)cc(C(=O)N[C@@H](Cc3ccccc3)[C@H](O)CNC3CCCCC3)cc12`, for which the XC50 came to 774 nM.

`COc1ccc(Cn2cncc2CN(CCC(C)C)C(=O)c2ccc(Cl)nc2Cl)cc1` yielded an XC50 of 1040 nM.

`Cc1cc(OCC2CCN(c3ncc(C(=O)NC4CC4)cc3Cl)CC2)ccc1F` returned an XC50 of 789 nM.

As for `CN1Cc2cc(NC(=O)/C=C/c3ccccc3Cl)ccc2C(C)(C)C1`, the XC50 came out at 641 nM.

As for `CN1CCN(c2ccc(Nc3ccnc4ccc(-c5ccccc5)cc34)cc2)CC1`, the XC50 came to 92.9 nM.

Take `COc1cc(NC(=O)c2sc(-c3ccc(Cl)cc3)cc2NC(=O)CN2CCCC2)ccc1OCCN1CCCC1`: the XC50 came to 927 nM.

The molecule `O=C(Cc1ccc[n+]([O-])c1)Nc1cccc(-c2cccc(-c3nc4cc(F)ccc4[nH]3)c2)c1` displayed an XC50 of 897 nM.

For the molecule `CNS(=O)(=O)Cc1ccc(Nc2nccc(Nc3cccc4c3cnn4C(=O)Nc3ccccc3)n2)cc1`, the XC50 came to 959 nM.

Molecule `COc1ccccc1CNC(=O)c1cc(C2CC2)nc2c1cnn2C(C)C` registered an XC50 of 1020 nM.

Turning to `Cc1ccc(CN2CCN(c3cc4c(cc3Cl)CCN4C(=O)Cc3ccc(NC(=O)c4ccc(C(F)(F)F)cc4)cc3)CC2)cc1`, the XC50 is 935 nM.

Regarding `CC1(C)NC(N)=NC(=N)N1OCCOc1ccc(Cc2ccccc2)cc1`, the XC50 amounted to 44 nM.

Molecule `O=C1C(c2ccccc2)=C(Nc2cccc([N+](=O)[O-])c2)c2ccccc21` gave an XC50 of 892 nM.

As for `CN(C)C(=O)CC(=O)NCc1c(Cl)cccc1Cl`, the XC50 worked out at 203 nM.

In turn, `Nc1nc(N)c2c(Oc3cccnc3)cccc2n1` had an XC50 of 886 nM.

`N=C(Nc1ccccc1)Nc1cccc(Cc2ccc([N+](=O)[O-])cc2)n1` gave an XC50 of 945 nM.

As for `CCN(CC)S(=O)(=O)c1ccc(Cl)c(C(=O)Nc2ccc3nc(C)sc3c2)c1`, the XC50 was found to be 798 nM.

`NCc1ccc(CNCc2cccc(-c3cccc(-c4nc5cc(F)ccc5[nH]4)c3)c2)cc1`: the XC50 was 308 nM.

Take `CC(C)CNC(=O)c1ccnc(-c2ccc(CNC3Cc4ccccc4C3)cc2)c1`: the XC50 came out at 790 nM.

In the case of `CCc1c(C)nc(-n2nc(C)cc2NC(=O)c2cccc3ccccc23)[nH]c1=O`, the XC50 came to 682 nM.

As to `O=C(Nc1cccc(CN2CCCN(Cc3cccc(O)c3)CC2)c1)c1cc2ccccc2s1`, the XC50 was 365 nM.

In turn, `Cc1cc(-c2cc(-c3ccc(OCCN(C)C)cc3)[nH]c2-c2ccc3c(c2)CCC3=NO)ccn1` had an XC50 of 867 nM.

In turn, `CC(C)CNCc1cccc(-c2cccc(CN(C(=O)NC3CCCCC3)C3CCN(Cc4ccccc4)CC3)c2)c1` gave an XC50 of 821 nM.
